“Also recorded” adds a separate entry of the source.
How the values were obtained:
platelet aggregability = conditions: aspirin resistant or aspirin semiresponders; literature 2001-2004; cited from earlier work
[1] = ESPS-2; J Neurol Sci. 1996; Neurology 1998; cited from earlier work
platelets = test: Platelet aggregation, conventional aggregometry, in blood of aspirin/clopidogrel resistant stroke/TIA patients pretreated in vitro with dipyridamole; format: cell-based, human; conditions: for Platelet aggregation 5 μM ADP: baseline 65.5 ± 6.3; for Platelet aggregation Collagen 1 μM / Platelet aggregation Arachidonic Acid 0.75 μM: non-responder blood, 45 min; for Platelet aggregation Collagen 1 μM: baseline 65.9 ± 8.9; for Platelet aggregation Arachidonic Acid 0.75 μM: baseline 72.5 ± 9.5
Procedure: (§1) Aspirin/clopidogrel resistance is defined by lack of platelet inhibition after one month of mono- or combination therapy. Lack of platelet inhibition is defined when 4 out of the following 5 parameters are met: ADP-induced platelet aggregation remains >60%; collagen-induced aggregation >70%; whole blood aggregation >18 ohms; expression of GP IIb/IIIa >220 log MFI; and P-selectin cell positivity >8%.
(§2) Experiments are done (blood is incubated) with dipyridamole 2 μM/L and 4 μM/L.
(§3) Twenty ml of blood were collected from each participant, divided into 3 parts, and 2 parts were incubated for 45 min with 2 μM/L and 4 μM/L of Dipyridamole. This concentration corresponds to the physiological Dipyridamole concentration in plasma achieved 0.8-12 hours after oral administration of Aggrenox (25 mg of aspirin+200 mg of Dipyridamole). The third portion was incubated with the vehicle and served as internal control.
(§4) Patients on other antithrombotic agents including COX inhibitors, and NSAID were excluded. Blood samples were pretreated with dipyridamole (2 mkg/ml, 4 mkg/ml), simulating the therapeutic range, and then incubated for 45 minutes at 37° C. Platelets were assessed by conventional (1 μM collagen, 0.75 μM arachidonic acid, and 5 μM ADP), and whole blood (1 mg/ml collagen) aggregometry; the expression of GP IIb/IIIa, P-selectin, annexin V binding, intact (SPAN12), and cleaved (WEDE15) PAR-1 thrombin receptors by flow cytometry. Markers of TR (D-Dimer, Thrombin-Antithrombin-III Complexes, and Prothrombin Fragment F1+2) were measured in the autologous plasma samples by ELISA.

GP IIb/IIIa = test: Flow cytometry: platelet expression of CD41a (GP IIb/IIIa); format: cell-based, human; conditions: for Flow-cytometry CD41a (GP IIb), MFI: non-responder blood, 45 min, baseline 429.0 ± 52.1
Procedure: as §1, §2, §3, §4

thrombin generation = test: Thrombin generation markers in autologous plasma by ELISA; format: cell-based, human; conditions: for Prothrombin fragment F1 + 2 / Thrombin-antithrombin III Complex / Thrombin generation markers D-dimer: non-responder blood, 45 min; for Prothrombin fragment F1 + 2: baseline 1.9 ± 1.0; for Thrombin-antithrombin III Complex: baseline 3.2 ± 1.1; for Thrombin generation markers D-dimer: baseline 325.0 ± 84.6
Procedure: as §1, §2, §3, §4

P-selectin = test: Flow cytometry: platelet expression of CD62p (P-selectin); format: cell-based, human; conditions: non-responder blood, 45 min, baseline 10.0 ± 1.8
Procedure: as §1, §2
as §3, with “The third portion was incubated with the vehicle and served as internal control.” left out
as §4, with “Blood samples were pretreated with dipyridamole (2 mkg/ml, 4 mkg/ml), simulating the therapeutic range, and then incubated for 45 minutes at 37° C.” left out

[2] = system: Thrombin receptor (PAR-1); test: Flow cytometry: intact (SPAN12) and cleaved (WEDE15) PAR-1 thrombin receptors on platelets; format: cell-based, human; conditions: for Thrombin receptor (PAR-1) WEDE 15 (epitope of cleaved receptors) / Thrombin receptor (PAR-1) SPAN 12 (epitope of intact receptor): non-responder blood, 45 min; for Thrombin receptor (PAR-1) WEDE 15 (epitope of cleaved receptors): baseline 20.2 ± 3.4; for Thrombin receptor (PAR-1) SPAN 12 (epitope of intact receptor): baseline 31.6 ± 6.4
Procedure: as §1, §2, §3, §4

[3] = system: Annexin V binding sites on platelets; test: Flow cytometry: Annexin V binding on platelets; format: cell-based, human; conditions: for Annexin V binding (PS % positive cells): non-responder blood, 45 min, baseline 9.5 ± 2.7
Procedure: as §1, §2, §3, §4

[4] = DIP in vitro, 2 and 4 mkg/ml, blood of AR patients, listed as DIP
[5] = addition of DIP in vitro in AR patients
[6] = Dipyridamole 4 μg/ml, p = 0.022

In the case of `CC(=O)Oc1ccccc1C(=O)O` [ASA, acetylsalicylic acid], the “patients treated with ASA who did not show appropriate reduction in platelet aggregability” value (platelet aggregability) is listed as “up to 30%”.

For `OCCN(CCO)c1nc(N2CCCCC2)c2nc(N(CCO)CCO)nc(N3CCCCC3)c2n1` [Dipyridamole, 2,6-bis(diethanolamino)-4,8-dipiperidino-pyrimido[5,4-d]pyrimidine], the “reduction of stroke risk” value [1] is listed as “as effective as low-dose aspirin”, the “Platelet aggregation / aggregometry (in words)” value (platelets; [4]) is listed as “not affected; also recorded: not changed” and the “Platelet aggregation 5 μM ADP” value (platelets; non-responder blood (n = 20) incubated 45 min at 37° C. with Dipyridamole 2 μg/ml, p = 0.13) is listed as 63.6 ± 6.8%. The “Platelet aggregation 5 μM ADP” value (platelets; non-responder blood (n = 20) incubated 45 min at 37° C. with Dipyridamole 4 μg/ml, p = 0.66) was 63.8 ± 6.8%, the “Platelet aggregation Collagen 1 μM” value (platelets; Dipyridamole 2 μg/ml, p = 0.13) was 64.2 ± 7.4% and the “Platelet aggregation Arachidonic Acid 0.75 μM” value (platelets; Dipyridamole 2 μg/ml, p = 0.41) was 71.4 ± 7.3. For the same compound, the “Platelet aggregation Collagen 1 μM” value (platelets; Dipyridamole 4 μg/ml, p = 0.38) was 64.2 ± 6.9%, the “Platelet aggregation Arachidonic Acid 0.75 μM” value (platelets; Dipyridamole 4 μg/ml, p = 0.12) was 70.6 ± 6.2 and the “GP IIb/IIIa (in words)” value (GP IIb/IIIa; [5]) was “sustained blockade”. For the same compound, the “Flow-cytometry CD41a (GP IIb), MFI” value (GP IIb/IIIa; Dipyridamole 2 μg/ml, p = 0.12) was 417.6 ± 49.5 MFI, the “Flow-cytometry CD41a (GP IIb), MFI” value (GP IIb/IIIa; Dipyridamole 4 μg/ml, p = 0.22) was 419.4 ± 49.1 MFI and the “TG markers / TR markers (in words)” value (thrombin generation; [4]) was “not affected; also recorded: not changed”. The “Prothrombin fragment F1 + 2” value (thrombin generation; Dipyridamole 2 μg/ml, p = 0.17) was 1.8 ± 1.0 nM/L, the “Thrombin-antithrombin III Complex” value (thrombin generation; Dipyridamole 2 μg/ml, p = 0.49) was 3.2 ± 1.2 µg/L and the “Thrombin generation markers D-dimer” value (thrombin generation; Dipyridamole 2 μg/ml, p = 0.55) was 316.1 ± 90.1 µg/L. For the same compound, the “Prothrombin fragment F1 + 2” value (thrombin generation; Dipyridamole 4 μg/ml, p = 0.41) was 1.8 ± 0.9 nM/L, the “Thrombin-antithrombin III Complex” value (thrombin generation; Dipyridamole 4 μg/ml, p = 0.24) was 3.1 ± 1.2 µg/L and the “Thrombin generation markers D-dimer” value (thrombin generation; Dipyridamole 4 μg/ml, p = 0.48) was 310.8 ± 83.8 µg/L. For the same compound, the “Flow-cytometry CD62p (P-selectin), % +” value (P-selectin; Dipyridamole 2 μg/ml, p = 0.308) was 9.4 ± 2.8 % +, the “Flow-cytometry CD62p (P-selectin), % +” value (P-selectin; Dipyridamole 4 μg/ml, p = 0.21) was 9.4 ± 2.4 % + and the “PAR-1 receptors (in words)” value [2, 5] was “sustained blockade”. For the same compound, the “expression of intact PAR-1 receptor (in words)” value ([2]; after incubation with 2 mkg/ml and 4 mkg/ml of dipyridamole (p=0.02 and p=0.024)) was “diminished expression”, the “Thrombin receptor (PAR-1) WEDE 15 (epitope of cleaved receptors)” value ([2]; Dipyridamole 2 μg/ml, p = 0.0507) was 18.4 ± 3.1 and the “Thrombin receptor (PAR-1) SPAN 12 (epitope of intact receptor)” value ([2]; Dipyridamole 2 μg/ml, p = 0.02) was 27.8 ± 5.4. The “Thrombin receptor (PAR-1) WEDE 15 (epitope of cleaved receptors)” value [2, 6] was 18.1 ± 3.0, the “Thrombin receptor (PAR-1) SPAN 12 (epitope of intact receptor)” value ([2]; Dipyridamole 4 μg/ml, p = 0.024) was 29.1 ± 5.5 and the “activity of the cleaved PAR-1 (in words)” value ([2]; only after incubation with 4 mkg/ml, statistically significant (p=0.022)) was “decreased activity”. The “annexin V binding (in words)” value ([3]; after incubation with 2 mkg/ml and 4 mkg/ml of dipyridamole (p=0.031 and p=0.02), listed as DIP) was “diminished; also recorded: sustained blockade”, the “Annexin V binding sites compared to pre-incubation” value ([3]; incubation of cells with DIP, patients with anti-platelet therapy resistance, e.g. ASA or clopidogrel resistance) was “significant reduction” and the “Annexin V binding (PS % positive cells)” value ([3]; Dipyridamole 2 μg/ml, p = 0.031) was 7.9 ± 2.3 % positive cells. For the same compound, the “Annexin V binding (PS % positive cells)” value [3, 6] was 7.7 ± 1.9 % positive cells.
